Test results: patent US20260159474A1, “Aminoindane Compounds and Compositions and Methods of Their Therapeutic Use” (Solvonis Therapeutics Ireland Holdings Limited, priority 2021, published 2026)

Legend:
[1] = system: DAT/SERT; conditions: Simmler et al., Br J Pharmacol. 2013; cited from earlier work
[2] = MDMA at doses of 100-125 mg, literature; cited from earlier work
[3] = target: T1, P-glycoprotein (P-gp, MDR1) (Homo sapiens, UniProt P08183); experiment: Bidirectional permeability and P-gp substrate assay in MDCKII-MDR1 cells; assay type: in vitro ADME; conditions: human, MDCK-MDR1, pH 7.4; efflux ratio, MDCKII-MDR1 cells; read-out: MDCKII-MDR1 B-A ratio
T1 construct: expressed in transfected cells; host or cells: MDCKII-MDR1 (Madin-Darby Canine Kidney clone II)
T1 sequence (P08183 whole entry): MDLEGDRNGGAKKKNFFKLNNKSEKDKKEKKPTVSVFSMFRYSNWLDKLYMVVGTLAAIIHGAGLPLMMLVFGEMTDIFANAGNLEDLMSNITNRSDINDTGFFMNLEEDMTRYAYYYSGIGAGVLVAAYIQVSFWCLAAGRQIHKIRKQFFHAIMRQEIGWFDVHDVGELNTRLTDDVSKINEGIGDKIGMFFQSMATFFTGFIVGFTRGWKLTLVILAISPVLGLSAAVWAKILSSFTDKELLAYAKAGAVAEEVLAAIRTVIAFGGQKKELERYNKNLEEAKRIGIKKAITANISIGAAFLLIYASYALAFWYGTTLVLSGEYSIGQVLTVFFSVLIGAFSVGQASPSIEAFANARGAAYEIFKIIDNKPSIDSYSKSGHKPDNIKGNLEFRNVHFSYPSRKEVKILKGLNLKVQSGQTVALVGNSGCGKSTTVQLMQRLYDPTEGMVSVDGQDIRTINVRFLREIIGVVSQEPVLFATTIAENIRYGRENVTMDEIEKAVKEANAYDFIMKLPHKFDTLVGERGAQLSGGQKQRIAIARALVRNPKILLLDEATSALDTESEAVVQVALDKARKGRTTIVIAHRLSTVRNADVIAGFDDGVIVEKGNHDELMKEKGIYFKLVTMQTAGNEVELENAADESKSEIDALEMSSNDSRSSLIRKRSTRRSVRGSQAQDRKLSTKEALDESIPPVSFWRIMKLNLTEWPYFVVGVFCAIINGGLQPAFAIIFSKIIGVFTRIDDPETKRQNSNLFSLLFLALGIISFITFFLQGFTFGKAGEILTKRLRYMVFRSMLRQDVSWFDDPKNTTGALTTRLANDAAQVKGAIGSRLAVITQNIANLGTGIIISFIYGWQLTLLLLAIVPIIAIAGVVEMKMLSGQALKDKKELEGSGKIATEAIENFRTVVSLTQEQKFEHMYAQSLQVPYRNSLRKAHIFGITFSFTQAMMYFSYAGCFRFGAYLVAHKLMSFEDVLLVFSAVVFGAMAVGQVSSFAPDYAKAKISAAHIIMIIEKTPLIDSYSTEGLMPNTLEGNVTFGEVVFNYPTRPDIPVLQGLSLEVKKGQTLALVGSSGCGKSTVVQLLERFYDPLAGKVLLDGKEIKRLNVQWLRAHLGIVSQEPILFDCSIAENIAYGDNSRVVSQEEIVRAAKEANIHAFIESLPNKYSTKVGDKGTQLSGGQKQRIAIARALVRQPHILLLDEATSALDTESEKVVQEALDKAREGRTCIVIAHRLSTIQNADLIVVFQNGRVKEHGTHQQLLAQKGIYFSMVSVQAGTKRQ
Procedure: Methods: A bidirectional permeability study was conducted to evaluate the apparent permeability (Papp) of therapeutic compounds. Additionally, the MDCKII-MDR1 cell line (Madin-Darby Canine Kidney clone II cell line heterologously expressing the human P-glycoprotein transporter) and mock cell line MDCKII were used to determine whether a compound acted as a P-gp substrate, in the absence and in the presence of a potent P-gp inhibitor. Test control items (digoxin, metoprolol, and atenolol) and control P-gp inhibitor (GF120918) stock solution were prepared in DMSO. Bidirectional assays (Apical to Basolateral [AB] and Basolateral to Apical [BA]) were run, in both the absence and presence of P-gp inhibitor GF120918 in MDCKII-MDR1 and mock cell line MDCKII, using as transport buffer HBSSH at a pH of 7.4 (n=3).
Compounds were tested at a single concentration (i.e. at […]) at one time point (i.e. 60 min). Alternative concentrations or time points may also be investigated. As reference compounds, digoxin (P-gp substrate), atenolol (low permeability) and metoprolol (high permeability) were included at a single concentration (e.g., 10 or […]) and at single time point (e.g., 60 min). Digoxin transport was evaluated in two directions (apical-to-basolateral [AB] and basolateral-to-apical [BA]) in the absence and presence of GF120918 or in mock cells, MDCKII (n=3). Atenolol and metoprolol were only tested in the AB direction in absence of P-gp inhibitor GF120918 or in mock cells, MDCKII (n=3). The integrity of the cell monolayer was evaluated after the permeability experiment using the paracellular permeability marker Lucifer yellow (LY) in the apical to basolateral direction in each well.
MDCKII or MDCKII-MDR1 cells were cultivated in DMEM (high glucose, GlutaMAXTM supplemented with pyruvate, 10% FBS HI and Pen/Strep). Cells were seeded onto microporous PET (Polyethylene Terephthalate) membranes in HTS 96-Multiwell Insert plates at a density of ˜175,000-245,000 cells/cm^2 (25000-35000 cells/well; 50 μL/well) in DMEM medium and incubated for 3-4 days at 37° C.-5% CO2. Medium was changed the day before the experiment.
Stock solutions of test items were prepared in DMSO at a concentration of 5 or 10 mM and stored at −20° C. until use. The potent P-gp inhibitor, GF120918 (stock solution 10 mM) and the reference controls digoxin, atenolol, metoprolol (stock solutions 3 or 10 mM) were prepared in DMSO and stored at −20° C. until use.
Donor working solutions of test items and reference controls were prepared at a concentration of 10 or 25 µM, diluting the stock solutions in HBSSH. Receiver working solutions contained transport buffer only. All working solutions were prepared such that the final concentration of DMSO was 1% (v/v). A donor working solution containing LY was also prepared in transport buffer at 100 µM.
MDCKII and MDCKII-MDR1 cells were preincubated (37° C., 15 to 30 minutes) in receiver working solutions containing transport buffer on apical (A) and basolateral (B) sides. Following pre-incubation, test items and control items (digoxin) transport were measured in two directions (apical to basolateral [AB]) and basolateral to apical [BA]), and these directions were performed in triplicate sets of wells, in both the absence and presence of […] GF120918 or mock MDCKII cells. For [AB] directional transport, 75 μL of donor working solution was added to the A (apical) compartment and 235 μL of receiver working solution was added to the B (basolateral) compartment. For [BA] directional transport, 235 μL donor working solution with test items or reference controls was added to the B compartment and 75 μL receiver working solution was added to the A compartment. Transport of permeability reference controls, atenolol and metoprolol, were measured in one direction (apical to basolateral [AB]) (n=3).
The cells were incubated (at 37° C., with shaking) for 60 minutes. […]

Compound | DAT/SERT ratio [1] | increase in blood pressure (diastolic) [2] | increase in heart rate [2] | efflux ratio at 60 min [3]
CNC(C)Cc1ccc2c(c1)OCO2 (centres unmarked) [MDMA] | 0.8 | 14.4-25 mmg | 26-30 bpm | –
COC(=O)c1ccc2c(c1)CC(N)C2 (centres unmarked) [CMP-405, 2-aminoindane-5-methylcarboxylate] | – | – | – | 1.1
COc1ccc2c(c1)CC(N)C2 (centres unmarked) [MEAI, 5-methoxy-2-aminoindane] | – | – | – | 1
